Test results published in article PMC12348105, “Pinene-Based Chiral Bipyridine Ligands Drive Potent Antibacterial Activity in Rhenium(I) Complexes” (Molecules, 2025).
Converted amounts (≈) assume the structure as drawn.

Tests used:
[1] = tested on: L929 mouse fibroblast cells; experiment: Cell toxicity, MTT assay; assay type: cell-based; conditions: 24 h treatment
Method: The cytotoxicity of the complexes was evaluated using L929 mouse fibroblast cells cultured in DMEM supplemented with 10% (v/v) fetal bovine serum (FBS), 1% (v/v) penicillin/streptomycin, and L-glutamine. Cytotoxicity was assessed using the standard MTT assay. Briefly, cells were seeded into 96-well plates at a density of 3.75 × 10^4 cells/mL and incubated for 24 h. The complexes, initially dissolved in DMSO, were diluted with culture medium and added to the wells at final concentrations ranging from 100 µM to 0.2 µM. After 24 h of treatment, MTT solution (5 mg/mL in PBS) diluted in fresh medium was added to each well at 25% of the total volume and incubated for an additional 4 h. Formazan crystals formed by metabolically active cells were then solubilized in a 1:1 (v/v) DMSO:ethanol solution. Control wells included untreated cells (100% viability). Relative cell viability was calculated by comparing absorbance values to those of the untreated control.

[2] = tested on: methicillin-sensitive S. aureus (MSSA); experiment: MIC determination against methicillin-sensitive S. aureus (broth dilution, OD600); assay type: cell-based, Staphylococcus aureus; conditions: 24 h, 37 °C
Method: (§1) The antimicrobial activity of the rhenium tricarbonyl mononuclear complexes and their corresponding pinene-bipyridine ligands was determined against two S. aureus strain: methicillin-resistant S. aureus (MRSA 43300) and methicillin-sensitive S. aureus (MSSA 25923). These microorganisms are responsible for most nosocomial infections. […] Their mechanism of action is not yet fully understood, but we hypothesized that their positive charge allows them to interact more easily with biomolecules than neutral complexes, and/or that they more strongly interact with the negatively charged cellular membrane.
(§2) The antimicrobial activity of the complexes was evaluated against two strains: Staphylococcus aureus SA113 (methicillin-susceptible, MSSA) and S. aureus MecA R2954 (methicillin-resistant, MRSA). Briefly, each complex was initially dissolved in sterile DMSO at a concentration of 10 mM to create a stock solution. The solutions were diluted with Mueller–Hinton Broth (MHB) culture medium and added (serial dilution) to the wells of a 96-well plate at final concentrations ranging from 100 µM to 0.2 µM. Simultaneously, bacterial cultures grown the previous day in non-cation-adjusted MHB (1×) were used to prepare suspensions at 1 × 10^6 CFU/mL. An equal volume (50 µL) of these bacterial suspensions was added to each well containing the diluted complexes, resulting in final bacterial and compound concentrations of 5 × 10^5 CFU/mL and 100 µM to 0.2 µM, respectively. The plates were incubated at 37 °C for 24 h. Minimum inhibitory concentrations (MICs) were determined by measuring optical density at 600 nm (OD600). All experiments were performed in triplicate.

[3] = tested on: methicillin-resistant S. aureus (MRSA); experiment: MIC determination against methicillin-resistant S. aureus (broth dilution, OD600); assay type: cell-based, Staphylococcus aureus; conditions: for MIC: 24 h, 37 °C
Method: as §1, §2

| Compound | IC50 [1] [µM] | MIC ([2]; Staphylococcus aureus) [µM] | MIC ([3]; Staphylococcus aureus, MRSA) [µM] | MIC [2] [µM] | MIC ([3]; MRSA) [µM] | other results |
| --- | --- | --- | --- | --- | --- | --- |
| CC1(C)[C@H]2Cc3cc(-c4ccccn4)ncc3[C@@H]1C2 [4,5-pinbpy, (−)-4,5-pinene bipyridine] | 2.5 to 5 | 3.13 (≈ 0.784 µg/mL) | 3.13 (≈ 0.784 µg/mL) |  |  |  |
| CC1(C)[C@H]2Cc3nc(-c4ccccn4)ccc3[C@@H]1C2 [5,6-pinbpy, (−)-5,6-pinene bipyridine] | 2.5 to 5 | 3.13 (≈ 0.784 µg/mL) | 3.13 (≈ 0.784 µg/mL) |  |  |  |
| N#CC(C#N)=NNc1cccc(Cl)c1 [CCCP] |  |  |  |  |  | MIC of positive control ([3]; S. aureus, concentration stated as 1× MIC): 12.5 µM |
| [Re(CO)3(bpy)(Py)](OTf) |  |  |  | 100 | 100 |  |
| [Re(CO)3(bpy)Br] |  |  |  | >50 | >50 | MIC higher than that of C2Br ([3]; MRSA, same core structure): ~10 fold |
